Laboratory results: patent US12097215B2, “Antibacterial composition and its use in treating bacterial infections” (Vector Vitale IP LLC, priority 2017, dated 2024)
Marks after values point to notes of the source that are not given here.

How the values were obtained:
[1] = tested on: S. aureus ATCC 25923; assay: MIC by serial dilutions in broth (visible growth); type: cell-based;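 further: broth tubes inoculated at about 5×10^5 CFU/ml, incubated 16-24 h at 35 °C in air, growth judged by transmitted light against an unexposed refrigerated inoculum tube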
Procedure: (§3) The minimum inhibitory concentration (MIC) and minimum bactericidal concentration (MBC) of the antibacterial composition enriched for the light isotope zinc ^64Zne was evaluated in the experiment. […] S. aureus ATCC 25923, E. coli ATCC 25922 and P. aeruginosa ATCC 27853 were used as test cultures.
(§4) The studies were carried out using the method of serial dilutions in broth. To determine sensitivity of microorganisms to the antibacterial composition, 0.5 ml of broth was placed into each tube. The number of tubes was determined based on the desired number of dilutions and was increased by one for the “negative” control (no test composition). Series of two-fold serial dilutions of the test variants of the antibacterial composition were used and concentrations ranging from 450 mcg ^64Zne/ml to 0.000107 mcg ^64Zne/ml were obtained.
(§5) Reference test strains of S. aureus ATCC 25923, E. coli ATCC 25922 and P. aeruginosa ATCC 27853 were incubated in Mueller-Hinton liquid broth at 37° C. for 24 hours. Standard bacterial suspension equivalent to 0.5 McFarland standard diluted 100-fold with the broth was used for the inoculation of the tubes after which the concentration of microorganism in it was approximately 10^6 CFU/ml.
(§6) 0.5 ml of inoculum was added to each tube containing 0.5 ml of the appropriate dilution of a solution of the ^64Zn-enriched salt of interest. […] The final concentration of the microorganism in each tube was approximately 5×10^5 CFU/ml.
(§7) The tubes were incubated at 35° C. in air for 16-20 or 20-24 hours (depending on the bacterial strain).
(§8) To determine the presence of microorganism growth the test tubes with inoculum were viewed under transmitted light. Transmitted light was measured by spectrophotometry. The growth of culture in the presence of antibacterial compositions based on ^64Zne was compared with the reference test tube (“negative” control), containing the original inoculum and stored in the refrigerator. The MIC was determined as the lowest concentration of ^64Zne that inhibits visible growth of the microorganism. Both gram-positive (S. aureus) and gram-negative bacteria (P. aeruginosa, E. coli) were used in the experiments described below.
(§9) That is, ^64Zne in the form of a salt was compared with a composition that contains zinc with a natural distribution of isotopes. […] Relevant samples containing salt of natural zinc with EDDA and natural zinc sulfate were used for the comparison.
(§10) The following commercial antibacterial medications were used for the study: azithromycin and ceftriaxone and norfloxacin. The initial concentration of 3000 mcg/ml was used for the samples of all the above compounds. […] Serial dilutions of the above antibacterial compounds were also prepared in the same way as for the antibacterial composition of the invention. The same pathogenic strains of S. aureus ATCC 25923, E. coli ATCC 25922, P. aeruginosa ATCC 27853 were used for the study.

[2] = tested on: E. coli ATCC 25922; assay: MIC by serial dilutions in broth (visible growth); type: cell-based;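 further: broth tubes inoculated to about 5×10^5 CFU/ml, incubated at 35 °C for 16-24 h, growth judged by transmitted light versus an untreated inoculum reference tube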
Procedure: as §3, §4, §5, §6, §7, §8, §9, §10

[3] = tested on: E. coli ATCC 25922; assay: MBC by plating tube contents on Mueller-Hinton medium; type: cell-based; details: Table 6
Procedure: (§1) To evaluate the bactericidal action of the antibacterial composition based on light isotope ^64Zne the minimum bactericidal concentration (MBC) was determined by plating out 0.1 ml of the contents of each tube containing the antibacterial composition on Mueller-Hinton medium. The incubation was at 37° C. for 24 h.
(§2) The MBC of the test samples was determined as the lowest concentration at which there was no growth on Mueller-Hinton agar medium.

[4] = tested on: P. aeruginosa ATCC 27853; assay: as above; type: cell-based
Procedure: as §1, §2

[5] = tested on: S. aureus ATCC 25923; assay: as above; type: cell-based; details: Table 6
Procedure: as §1, §2

[6] = tested on: P. aeruginosa ATCC 27853; assay: MIC by serial dilutions in broth (visible growth); details: concentration of ^64Zne; Tables 1-5
Procedure: as §3, §4, §5, §6, §7, §8, §9, §10

[7] = concentration of ^64Zne, Tables 1-5

O=C([O-])CC(O)(CC(=O)[O-])C(=O)[O-].O=C([O-])CC(O)(CC(=O)[O-])C(=O)[O-].[Zn+2].[Zn+2].[Zn+2] [^64Zne citrate]
visible growth ([1]; ^64Zne 0.00011 mcg/ml): + | visible growth ([1]; ^64Zne 0.00022 mcg/ml): + | visible growth ([1]; ^64Zne 0.00043 mcg/ml): + | visible growth ([1]; ^64Zne 0.00086 mcg/ml): + | visible growth ([1]; ^64Zne 0.0017 mcg/ml): + | visible growth ([1]; ^64Zne 0.0034 mcg/ml): + | visible growth ([1]; ^64Zne 0.0069 mcg/ml): + | visible growth ([1]; ^64Zne 0.014 mcg/ml): + | visible growth ([1]; ^64Zne 0.027 mcg/ml): − | visible growth ([1]; ^64Zne 0.055 mcg/ml): − | visible growth ([1]; ^64Zne 0.11 mcg/ml): − | visible growth ([1]; ^64Zne 0.22 mcg/ml): − | visible growth ([1]; ^64Zne 0.44 mcg/ml): − | visible growth ([1]; ^64Zne 0.88 mcg/ml): − | visible growth ([1]; ^64Zne 1.76 mcg/ml): − | visible growth ([1]; ^64Zne 3.52 mcg/ml): − | visible growth ([1]; ^64Zne 7.03 mcg/ml): − | visible growth ([1]; ^64Zne 14.06 mcg/ml): − | visible growth ([1]; ^64Zne 28.13 mcg/ml): − | visible growth ([1]; ^64Zne 56.25 mcg/ml): − | visible growth ([1]; ^64Zne 112.5 mcg/ml): − | visible growth ([1]; ^64Zne 225 mcg/ml): − | MIC [1, 7]: 0.0275 µg/mL | visible growth ([2]; ^64Zne 0.00011 mcg/ml): + | visible growth ([2]; ^64Zne 0.00022 mcg/ml): + | visible growth ([2]; ^64Zne 0.00043 mcg/ml): + | visible growth ([2]; ^64Zne 0.00086 mcg/ml): + | visible growth ([2]; ^64Zne 0.0017 mcg/ml): + | visible growth ([2]; ^64Zne 0.0034 mcg/ml): + | visible growth ([2]; ^64Zne 0.0069 mcg/ml): + | visible growth ([2]; ^64Zne 0.014 mcg/ml): + | visible growth ([2]; ^64Zne 0.027 mcg/ml): − | visible growth ([2]; ^64Zne 0.055 mcg/ml): − | visible growth ([2]; ^64Zne 0.11 mcg/ml): − | visible growth ([2]; ^64Zne 0.22 mcg/ml): − | visible growth ([2]; ^64Zne 0.44 mcg/ml): − | visible growth ([2]; ^64Zne 0.88 mcg/ml): − | visible growth ([2]; ^64Zne 1.76 mcg/ml): − | visible growth ([2]; ^64Zne 3.52 mcg/ml): − | visible growth ([2]; ^64Zne 7.03 mcg/ml): − | visible growth ([2]; ^64Zne 14.06 mcg/ml): − | visible growth ([2]; ^64Zne 28.13 mcg/ml): − | visible growth ([2]; ^64Zne 56.25 mcg/ml): − | visible growth ([2]; ^64Zne 112.5 mcg/ml): − | visible growth ([2]; ^64Zne 225 mcg/ml): − | visible growth ([2]; ^64Zne 450 mcg/ml): − | MIC [2, 7]: 0.0275 µg/mL | MBC [3]: 0.44* mcg ^64Zne/ml | bactericidal activity (in words) [4]: satisfactory bactericidal activity | MBC ([4]; Table 6): 112.5 mcg ^64Zne/ml | MBC [5]: 0.028* mcg ^64Zne/ml | MIC [6]: 14.062 µg/mL
